Values quoted from earlier work, collected in publication PMC6429159, “Evolution and Biological Evaluation of Matrinic Derivatives with Amantadine Fragments As New Anti-Influenza Virus Agents” (Molecules, 2019).
pIC50: −log10 of the molar value.

Tested on: influenza virus A/hanfang/359/95 (H3N2)
Design: method as in PMID 29473520
Conditions: lead 1, value of previous study; read-out: Anti-H3N2 IC50; cited from earlier work

CCCCC1C2CCCN3CCCC(CN1Cc1ccc(C(=O)O)cc1)C23 (stereo not shown) [Compound 1, 12N-p-carboxybenzyl matrinic butane]
pIC50: 4.79
